These results are taken from patent US10722501B2 (BAYER AKTIENGESELLSCHAFT, priority 2016, dated 2020).

For orientation: pIC50 means −log10 of the IC50, conventionally taken in molar units.

pIC50: −log10 of the molar value.

In the assay the target is T1, recombinant full-length human prolyl endopeptidase (PREP) (Homo sapiens, UniProt P48147).
T1 construct: To recombinant full-length human prolyl endopeptidase (PREP, R&D-Systems, 4308-SE); purchased R&D-Systems 4308-SE
T1 sequence (P48147 1-710): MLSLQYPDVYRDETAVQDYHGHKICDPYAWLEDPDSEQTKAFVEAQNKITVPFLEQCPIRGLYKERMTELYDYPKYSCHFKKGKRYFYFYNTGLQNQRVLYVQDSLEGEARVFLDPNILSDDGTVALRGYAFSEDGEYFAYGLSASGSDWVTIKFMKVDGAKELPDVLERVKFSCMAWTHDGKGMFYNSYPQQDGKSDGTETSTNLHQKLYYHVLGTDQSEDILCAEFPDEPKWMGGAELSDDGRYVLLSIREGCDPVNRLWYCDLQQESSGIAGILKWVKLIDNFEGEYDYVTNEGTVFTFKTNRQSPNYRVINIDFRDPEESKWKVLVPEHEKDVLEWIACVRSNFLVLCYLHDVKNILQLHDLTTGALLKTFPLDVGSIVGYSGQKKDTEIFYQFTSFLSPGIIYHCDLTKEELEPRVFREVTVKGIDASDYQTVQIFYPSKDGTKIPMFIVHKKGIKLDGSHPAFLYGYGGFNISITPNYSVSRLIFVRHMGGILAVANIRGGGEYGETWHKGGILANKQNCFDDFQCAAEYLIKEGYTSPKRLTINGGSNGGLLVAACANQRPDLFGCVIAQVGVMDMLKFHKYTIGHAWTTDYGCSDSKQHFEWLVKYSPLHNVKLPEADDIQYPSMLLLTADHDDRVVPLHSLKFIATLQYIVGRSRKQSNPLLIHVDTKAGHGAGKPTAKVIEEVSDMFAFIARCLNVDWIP
As to the kind of experiment: Biochemical human prolyl endopeptidase (PREP) assay with fluorescently labelled substrate. The following applies: substrate Z-Gly-Pro-AMC 50 μM, 32° C., 60 min; some as mean values from multiple independent determinations. The essentials: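 Initial rates of fluorescence increase from 50 μM Z-Gly-Pro-AMC cleavage (ex 360/em 465 nm, 60 min, 32° C) give percent PREP activity versus no-compound control, and IC50 is interpolated. Enzyme used at 0.4 nM (final, example) in Tris pH 7.5 with EDTA, GSH, BSA and Brij-35; compounds span 1 nM to 30 μM.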
As to `O=C([C@@H]1CCCc2nn(Cc3ccc(C(F)(F)F)c(Cl)c3)c(=O)n21)N1C[C@@H](F)[C@@H](F)C1` [Example 458, (5S)-2-[3-Chloro-4-(trifluoromethyl)benzyl]-5-{[(3R,4S)-3,4-difluoropyrrolidin-1-yl]carbonyl}-5,6,7,8-tetrahydro[1,2,4]triazolo[4,3-a]pyridin-3(2H)-one], the pIC50 is 9.29. With `O=C([C@@H]1CCCc2nn(Cc3ccc(C(F)(F)F)c(Cl)c3)c(=O)n21)N1CC(F)C1` [Example 459, (5S)-2-[3-Chloro-4-(trifluoromethyl)benzyl]-5-[(3-fluoroazetidin-1-yl)carbonyl]-5,6,7,8-tetrahydro[1,2,4]triazolo[4,3-a]pyridin-3(2H)-one] the figure was 9.70; with `O=C([C@@H]1CCCc2nn(Cc3ccc(C(F)(F)F)c(Cl)c3)c(=O)n21)N1CCC(F)(F)C1` [Example 460, (5S)-2-[3-Chloro-4-(trifluoromethyl)benzyl]-5-[(3,3-difluoropyrrolidin-1-yl)carbonyl]-5,6,7,8-tetrahydro[1,2,4]triazolo[4,3-a]pyridin-3(2H)-one], 9.77; with `O=C([C@@H]1CCCc2nn(Cc3ccc(C(F)(F)F)c(Cl)c3)c(=O)n21)N1CC[C@H](F)C1` [Example 461, (5S)-2-[3-Chloro-4-(trifluoromethyl)benzyl]-5-{[(3S)-3-fluoropyrrolidin-1-yl]carbonyl}-5,6,7,8-tetrahydro[1,2,4]triazolo[4,3-a]pyridin-3(2H)-one], 9.20. With `O=C([C@@H]1CCCc2nn(Cc3ccc(Cl)c(F)c3)c(=O)n21)N1C[C@@H](F)[C@@H](F)C1` [Example 462, (5S)-2-(4-Chloro-3-fluorobenzyl)-5-{[(3R,4S)-3,4-difluoropyrrolidin-1-yl]carbonyl}-5,6,7,8-tetrahydro[1,2,4]triazolo[4,3-a]pyridin-3(2H)-one] the figure was 9.55; with `O=C([C@@H]1CCCc2nn(Cc3ccc(Cl)c(F)c3)c(=O)n21)N1CC(F)C1` [Example 463, (5S)-2-(4-Chloro-3-fluorobenzyl)-5-[(3-fluoroazetidin-1-yl)carbonyl]-5,6,7,8-tetrahydro[1,2,4]triazolo[4,3-a]pyridin-3(2H)-one], 9.65. With `O=C([C@@H]1CCCc2nn(Cc3ccc(Cl)c(F)c3)c(=O)n21)N1CCC(F)(F)C1` [Example 464, (5S)-2-(4-Chloro-3-fluorobenzyl)-5-[(3,3-difluoropyrrolidin-1-yl)carbonyl]-5,6,7,8-tetrahydro[1,2,4]triazolo[4,3-a]pyridin-3(2H)-one] the figure was 9.29. As to `O=C([C@@H]1CCCc2nn(Cc3ccc(Cl)c(F)c3)c(=O)n21)N1CC(F)(F)C1` [Example 465, (5S)-2-(4-Chloro-3-fluorobenzyl)-5-[(3,3-difluoroazetidin-1-yl)carbonyl]-5,6,7,8-tetrahydro[1,2,4]triazolo[4,3-a]pyridin-3(2H)-one], the pIC50 was 8.68.

In the case of `O=C([C@@H]1CCCc2nn(Cc3ccc(F)c(F)c3)c(=O)n21)N1CC[C@H](F)C1` [Example 466, (5S)-2-(3,4-Difluorobenzyl)-5-{[(3S)-3-fluoropyrrolidin-1-yl]carbonyl}-5,6,7,8-tetrahydro[1,2,4]triazolo[4,3-a]pyridin-3(2H)-one], the pIC50 is 9.39.

With `O=C([C@@H]1CCCc2nn(Cc3ccc(F)c(F)c3)c(=O)n21)N1C[C@@H](F)[C@@H](F)C1` [Example 467, (5S)-2-(3,4-Difluorobenzyl)-5-{[(3R,4S)-3,4-difluoropyrrolidin-1-yl]carbonyl}-5,6,7,8-tetrahydro[1,2,4]triazolo[4,3-a]pyridin-3(2H)-one], the pIC50 is 9.31. The figure for `O=C([C@@H]1CCCc2nn(Cc3ccc(F)c(F)c3)c(=O)n21)N1CCC(F)(F)C1` [Example 468, (5S)-2-(3,4-Difluorobenzyl)-5-[(3,3-difluoropyrrolidin-1-yl)carbonyl]-5,6,7,8-tetrahydro[1,2,4]triazolo[4,3-a]pyridin-3(2H)-one] is 8.85.
